Consider 4 compounds from patent US10258072B2, “Environmentally friendly gelator using medium chain triglycerides and method of use” (Research Foundation of the City University of New York, priority 2014, dated 2019).

The structures appear in SMILES notation.

A short description of data set [1]: Gelation test by vial inversion: gelation index and minimum gelation concentration (MGC). In kind it is physicochemical. On the set-up: key to Gelation Index: I = Insoluble; PS = Partially Soluble. As to the method: (§1) Preparation and Characterization Molecular Gels. Gels were prepared by adding the solid glassy glycosides (10.0-50.0 mg gelator) to the desired solvent (1 mL). The mixture was then heated to disperse the gelator at five degrees below the boiling point of organic solvents, and at 125° C. for oils to produce a homogeneous sol. The sol was kept at this temperature for 10 minutes under constant agitation to fully disperse the gelator. The sol was then cooled to room temperature to allow for self-assembly and after a length of time (between 2-24 hours), the samples were inverted to confirm gel formation. The efficacy of gel formation was examined by determining the minimum gelation concentration (MGC) and gel-to-sol transition temperature (Tgel). Gel samples were diluted with solvent until after setting and vial inversion a gel, partial gel, or sol was formed. The gel transition temperature was determined by submersing a gel sample in an oil bath, and increasing the temperature until the gel flowed like a liquid, indicating the disassembly of the gelator structure. MGC was determined beginning from 5 wt. % samples (50 mg gelator in 1 mL solvent) or below the concentration of precipitation for gelators and diluting the samples until a sol is formed.

Data set [2] is described as follows: Gel-to-sol transition temperature (Tgel) in oil bath. In kind it is physicochemical. As to the method:
as §1, with “structure.” for “structure. MGC was determined beginning from 5 wt. % samples (50 mg gelator in 1 mL solvent) or below the concentration of precipitation for gelators and diluting the samples until a sol is formed.”

`CCCCCCCC(=O)OC[C@H]1O[C@@H](Oc2ccc(CCC(C)=O)cc2)[C@H](O)[C@@H](O)[C@@H]1O` [RKG8, ((2R,3S,4S,5R,6S)-3,4,5-trihydroxy-6-(4-(3-oxobutyl)phenoxy)tetrahydro-2H-pyran-2-yl) methyl octanoate]: the “Minimum Gelation Concentration” value is 0.27 wt. % in data set [1] (Coconut Oil (edible oil)); 0.25 wt. % in data set [1] (Grape seed Oil (edible oil)); 0.26 wt. % in data set [1] (Hazelnut Oil (edible oil)); 2.1 wt. % in data set [1] (Hexanes (organic solvent)); 0.25 wt. % in data set [1] (Jojoba Oil (edible oil)); 1.4 wt. % in data set [1] (Mineral Oil (organic solvent)). Moreover, the results for the “Minimum Gelation Concentration” value in data set [1] (Red Palm Oil (edible oil)) and in data set [1] (Toluene (organic solvent)) were 0.34 wt. % and 0.5 wt. %, respectively. Besides, in data set [1] (Water (aqueous solvent)), the “Gelation Index” value is “I”. Also, the Tgel in data set [2] (5 wt. % gel in Coconut Oil) is 106-107 °C; in data set [2] (5 wt. % gel in Olive Oil), 108-110 °C; in data set [2] (5 wt. % gel in Toluene), 48-50 °C.
With `CCCCCCCCCCCCCCCCCC(=O)OCC1OC(Oc2ccc(CCC(C)=O)cc2)C(O)C(O)C1O` (stereo not drawn) [RKG18, raspberry ketone glucoside stearate], the “Minimum Gelation Concentration” value in data set [1] (Coconut Oil (edible oil)) turned out to be 0.28 wt. %; in data set [1] (Grape seed Oil (edible oil)) it was 0.30 wt. %; in data set [1] (Hazelnut Oil (edible oil)), 0.24 wt. %; in data set [1] (Hexanes (organic solvent)), 0.24 wt. %; in data set [1] (Jojoba Oil (edible oil)), 0.26 wt. %; in data set [1] (Mineral Oil (organic solvent)), 0.24 wt. %. In addition, the “Minimum Gelation Concentration” value in data set [1] (Red Palm Oil (edible oil)) and in data set [1] (Toluene (organic solvent)) was 0.36 wt. % in each case. Further, in data set [1] (Water (aqueous solvent)), the “Gelation Index” value is “I”. Besides, the Tgel in data set [2] (5 wt. % gel in Coconut Oil) is 111-112 °C.
On to `CCCCCCCCC=CCCCCCCCC(=O)OCC1OC(Oc2ccc(CCC(C)=O)cc2)C(O)C(O)C1O` (stereo not drawn) [RKGO, raspberry ketone glucoside oleate], for which the “Minimum Gelation Concentration” value in data set [1] (Coconut Oil (edible oil)) was determined as 0.54 wt. %; in data set [1] (Grape seed Oil (edible oil)), 0.66 wt. %; in data set [1] (Hazelnut Oil (edible oil)), 0.56 wt. %; in data set [1] (Jojoba Oil (edible oil)), 0.48 wt. %; in data set [1] (Mineral Oil (organic solvent)), 0.80 wt. %; in data set [1] (Red Palm Oil (edible oil)) it was 0.72 wt. %. For the same compound, the “Minimum Gelation Concentration” value in data set [1] (Toluene (organic solvent)) is on record as 0.73 wt. %. Moreover, the MGC entry in data set [1] (RKGO gels compared to saturated analogues) was “greater than 0.5 wt. %”.
For the compound `CC(=O)CCc1ccc(O[C@@H]2O[C@H](CO)[C@@H](O)[C@H](O)[C@H]2O)cc1` [Raspberry ketone glucoside, reference compound], the “Gelation Index” value in data set [1] (Coconut Oil (edible oil)), in data set [1] (Grape seed Oil (edible oil)), in data set [1] (Hazelnut Oil (edible oil)), in data set [1] (Hexanes (organic solvent)), in data set [1] (Jojoba Oil (edible oil)) and in data set [1] (Mineral Oil (organic solvent)) was “I” throughout. The “Gelation Index” value is given as “I” in data set [1] (Red Palm Oil (edible oil)), “PS” in data set [1] (Toluene (organic solvent)) and “PS” in data set [1] (Water (aqueous solvent)).
